For series [1], the system named is RSV (RSV A2 ECACC, 0709161v). As to the kind of experiment: RSV plaque reduction assay. Type of series: cell-based, respiratory syncytial virus. The conditions noted are these: mean of at least two experiments unless noted (n = 1). The method in brief: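 Eight-point compound dilutions were premixed with RSV A2 (100 PFU/well) and applied to confluent Hep-G2 cells for 2 h, followed by a 2-day incubation at 37° C. under compound-containing 0.8% CMC overlay. EC50 comes from immunostained plaque counts relative to untreated virus wells, averaged over ≥2 runs.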

A short description of series [2]: cell toxicity CC50. Format: cell-based. The settings on record: human; Hep-G2 cells; mean of at least two experiments; read-out: Cell Cytotoxicity CC50.
A short description of series [3]: Liver microsomal stability, rat. Type of series: in vitro ADME. The settings on record: rat liver microsomes 0.5 mg/mL, 1 μM compound, NADPH, up to 45 min; for half-life at 1 μM: pooled liver microsomes, pH 7.4, read-out: Liver Microsomal Stability t½. As to the method: (§1) Compounds were subjected to the following assays to investigate liver microsomal stability and hepatocyte stability.
(§2) Pooled liver microsomes were purchased from a reputable commercial supplier and stored at −80° C. prior to use. Microsomes (final protein concentration 0.5 mg/mL), 0.1 M phosphate buffer pH 7.4 and test compound (final substrate concentration 1 μM; final DMSO concentration 0.25%) were pre-incubated at 37° C. prior to the addition of NADPH (final concentration 1 mM) to initiate the reaction. The final incubation volume was 50 μL. A control incubation was included for each compound tested where 0.1 M phosphate buffer pH 7.4 was added instead of NADPH (minus NADPH). Two control compounds were included with each species. All incubations were performed singularly for each test compound. Each compound was incubated for 0, 5, 15, 30 and 45 min. The control (minus NADPH) was incubated for 45 min only. The reactions were stopped by transferring incubate into acetonitrile at the appropriate time points, in a 1:3 ratio. The termination plates are centrifuged at 3,000 rpm for 20 min at 4° C. to precipitate the protein. Following protein precipitation, the sample supernatants were combined in cassettes of up to 4 compounds, internal standard added, and samples analysed by LC-MS/MS. From a plot of ln peak area ratio (compound peak area/internal standard peak area) against time, the gradient of the line was determined. Subsequently, half-life (t1/2) and intrinsic clearance (CLint) were calculated.

Series [4] in a line: Liver microsomal stability, dog. Format: in vitro ADME. The settings on record: dog liver microsomes 0.5 mg/mL, 1 μM compound, NADPH, up to 45 min; for half-life at 1 μM: pooled liver microsomes, pH 7.4, read-out: Liver Microsomal Stability t½. As to the method: as §1, §2
Series [5] in a line: Liver microsomal stability, human. The settings on record: human liver microsomes 0.5 mg/mL, 1 μM compound, NADPH, up to 45 min; for half-life at 1 μM: pooled liver microsomes, pH 7.4, read-out: Liver Microsomal Stability t½. Format: in vitro ADME. As to the method:
as §1, §2

A short description of series [6]: Hepatocyte stability, rat. Type of series: in vitro ADME. The conditions noted are these: rat hepatocytes 0.5×10^6 viable cells/mL, 3 μM compound, up to 60 min; for half-life at 3 μM: cryopreserved pooled hepatocytes, read-out: Liver Hepatocyte Stability t½. The procedure:
as §1
(§3) Hepatocyte Incubation: Experimental Procedure
(§4) Cryopreserved pooled hepatocytes were purchased from a reputable commercial supplier and stored in liquid nitrogen prior to use. Williams E media supplemented with 2 mM L-glutamine and 25 mM HEPES and test compound (final substrate concentration 3 μM; final DMSO concentration 0.25%) are pre-incubated at 37° C. prior to the addition of a suspension of cryopreserved hepatocytes (final cell density 0.5×10^6 viable cells/mL in Williams E media supplemented with 2 mM L-glutamine and 25 mM HEPES) to initiate the reaction. The final incubation volume is 500 μL. Two control compounds were included with each species, alongside appropriate vehicle control. The reactions are stopped by transferring 50 μL of incubate to 100 μL acetonitrile containing internal standard at the appropriate time points. Samples were removed at 6 time points (0, 5, 15, 30, 45 and 60 min) over the course of a 60 min experiment. The termination plates are centrifuged at 2500 rpm at 4° C. for 30 min to precipitate the protein. Following protein precipitation, the sample supernatants were combined in cassettes of up to 4 compounds and analysed using generic LC-MS/MS conditions. From a plot of ln peak area ratio (compound peak area/internal standard peak area) against time, the gradient of the line is determined. Subsequently, half-life (t½) and intrinsic clearance (CLint) were calculated.

Series [7] can be described thus: Hepatocyte stability, dog. Type of series: in vitro ADME. The conditions noted are these: dog hepatocytes 0.5×10^6 viable cells/mL, 3 μM compound, up to 60 min; for half-life at 3 μM: cryopreserved pooled hepatocytes, read-out: Liver Hepatocyte Stability t½. The procedure:
as §1, §3, §4

A short description of series [8]: Hepatocyte stability, human. Type of series: in vitro ADME. The settings on record: human hepatocytes 0.5×10^6 viable cells/mL, 3 μM compound, up to 60 min; for half-life at 3 μM: cryopreserved pooled hepatocytes, read-out: Liver Hepatocyte Stability t½. As to the method: as §1, §3, §4
Series [9] can be described thus: Rat pharmacokinetics in vivo (IV 1 mg/kg, PO 10 mg/kg). Set-up: species or system Male rats [Sprague Dawley (SD)]. The settings on record: male SD rat; for AUC(0-t): read-out: PO AUClast; for Cmax: PO 10 mg/kg study; for concentration at 8 h: read-out: C 8 h; for F: PO 10 mg/kg vs IV 1 mg/kg. As to the method:
The pharmacokinetics of compounds were studied in vivo in rats at doses of 1 mg/kg (IV) and 10 mg/kg (PO).
Male rats [Sprague Dawley (SD)] surgically prepared with a jugular vein cannula were treated with experimental compounds via intravenous administration (IV; n=3; 1 mg/kg) or oral administration (PO; n=3; 10 mg/kg). Compounds were formulated as a solution in 40:60 dimethylacetamide:saline (IV administration) and a solution of 10% DMSO, 10% cremaphor in water (80%) (PO administration). […] Serial blood samples were collected via the cannula at 0.02, 0.08, 0.25, 0.5, 1, 2, 4, 6, 8 and 24 h post IV dosing of compound, and at 0.08, 0.25, 0.5, 1, 2, 4, 6, 8 and 24 h post oral dosing of compound, and plasma was prepared by centrifugation and stored immediately at −80° C. Samples were subsequently thawed, prepared for analysis by protein precipitation with acetonitrile, and analysed by tandem LCMS using electrospray ionisation using a matrix-matched calibration curve. PK parameters were calculated from the resulting data.

Series [10] has as its system RSV. The settings on record: Antimicrobial Agents and Chemotherapy, September 2007, 3346-3353; cited from earlier work.
Series [11] concerns Hep-G2 cells. In words: cell toxicity CC50. Type of series: cell-based. The settings on record: mean of at least two experiments, read-out: Cell Cytotoxicity CC50.
Setting [12] is: human respiratory syncytial virus, HepG2, read-out: RSV A2 Plaque EC50, RSV A2 in Hep-G2 cells.
Where [13] appears, read: Sprague Dawley, plasma, IV 1 mg/kg.
Setting [14] is: Sprague Dawley, plasma, IV 1 mg/kg, read-out: IV t½ (converted).
Setting [15] is: Sprague Dawley, plasma, IV 1 mg/kg, read-out: Vd.
Where [16] appears, read: Sprague Dawley, plasma, PO 10 mg/kg.
[17] abbreviates: Sprague Dawley, plasma, PO 10 mg/kg, read-out: PO t½ (converted).
[18] abbreviates: Sprague Dawley, plasma, IV 1 mg/kg, read-out: Cmax.

Results on five compounds are retold here after patent publication US12678446B2 (PFIZER INC., priority 2020, dated 2026).

Where two headings read alike, the source gives them in different places.

As to `C[C@@H]1CCn2nc(-c3ccccc3F)c(C(=O)N[C@H]3N=C(c4ccccc4)c4cccc(F)c4NC3=O)c2O1` [Example 25, (5R)-N-[(3S)-9-fluoro-2-oxo-5-phenyl-1,3-dihydro-1,4-benzodiazepin-3-yl]-2-(2-fluorophenyl)-5-methyl-6,7-dihydro-5H-pyrazolo[5,1-b][1,3]oxazine-3-carboxamide], in [1] (setting [12]), the EC50 was determined as 24 nM. Also, the CC50 in series [2] was over 25000 nM. Besides, the half-life at 1 μM in [3] was over 2.33 h; in series [4], over 2.33 h; in [5], 16.8 h. The half-life at 3 μM in series [6] was 1.8 h; in series [7], over 3.1 h; in series [8], 4.73 h. This compound registered a clearance in [9] (setting [13]) of 4.7 mL/min/kg. Also, the figures for the half-life in series [9] (setting [14]) and in series [9] (setting [17]) were 2.2 h and 3.4 h, respectively. The Vd in series [9] (setting [15]) was 0.6 L/kg. For the same compound, the AUC(0-t) in series [9] (setting [16]) is 14900 ng·h/mL. The Cmax in series [9] (setting [18]) came out at 1880 ng/mL. Also, the concentration at 8 h in series [9] (Sprague Dawley, plasma at 8 h) came to 812 ng/mL. In [9], this compound gave an F of 40.3%.

Regarding `C[C@H]1CCn2nc(-c3ccccc3F)c(C(=O)N[C@H]3N=C(c4ccccc4)c4cccc(F)c4NC3=O)c2O1` [Example 27, (5S)-N-[(3S)-9-fluoro-2-oxo-5-phenyl-1,3-dihydro-1,4-benzodiazepin-3-yl]-2-(2-fluorophenyl)-5-methyl-6,7-dihydro-5H-pyrazolo[5,1-b][1,3]oxazine-3-carboxamide], in series [1] (setting [12]), the EC50 came to 20 nM. The CC50 in series [2] was over 25000 nM. In addition, the half-life at 1 μM was found to be 1.4 h in [3], 7.72 h in series [4] and 2.25 h in series [5]. Further, the half-life at 3 μM in [6] is 8.08 h; in series [7], over 3.1 h; in [8] it was over 3.1 h. This compound gave a clearance in series [9] (setting [13]) of 24.9 mL/min/kg. Further, the results for the half-life in series [9] (setting [14]) and in [9] (setting [17]) were 0.72 h and 2.8 h, respectively. In addition, the Vd in [9] (setting [15]) is 0.9 L/kg. The AUC(0-t) in series [9] (setting [16]) amounted to 3140 ng·h/mL. For the same compound, in series [9] (setting [18]), the Cmax came out at 960 ng/mL. In addition, the concentration at 8 h in [9] (Sprague Dawley, plasma at 8 h) turned out to be 75.9 ng/mL. The same compound gave a F in [9] of 49.6%.

For the compound `CCc1ccc(-c2nn3c(c2C(=O)N[C@H]2N=C(c4ccccc4)c4cccc(F)c4NC2=O)OCCC3)cn1` [Example 106, 2-(6-Ethylpyridin-3-yl)-N-[(3S)-9-fluoro-2-oxo-5-phenyl-1,3-dihydro-1,4-benzodiazepin-3-yl]-6,7-dihydro-5H-pyrazolo[5,1-b][1,3]oxazine-3-carboxamide], in series [1] (setting [12]), the EC50 came to 48 nM. Also, the CC50 in series [2] is over 25000 nM. Further, the results for the half-life at 1 μM in series [3], in series [4] and in series [5] were 0.815 h, 1.82 h and 3.1 h, respectively. Moreover, the half-life at 3 μM in series [6] is 1.59 h; in series [7] it was 2 h; in series [8] it was over 3.1 h. Further, the clearance in series [9] (setting [13]) is 14.6 mL/min/kg. In addition, the half-life was 1.2 h in series [9] (setting [14]) and 3.6 h in series [9] (setting [17]). Besides, the Vd in series [9] (setting [15]) was found to be 0.7 L/kg. Also, the AUC(0-t) in series [9] (setting [16]) was 5690 ng·h/mL. In [9] (setting [18]), the Cmax was determined as 1030 ng/mL. For the same compound, the concentration at 8 h in [9] (Sprague Dawley, plasma at 8 h) is 271 ng/mL. This compound also had a F in [9] of 59.4%.

Regarding `O=C(Nc1ccccc1F)N[C@H]1N=C(c2ccccc2)c2ccccc2NC1=O` [RSV604], the anti-RSV activity result in series [10] is recorded as “sub-micromolar anti-RSV activity”.

On to “(5R)-2-(3-Fluoropyridin-4-yl)-5-methyl-N-[(3S)-9-fluoro-2-oxo-5-phenyl-1,3-dihydro-1,4-benzodiazepin-3-yl]-6,7-dihydro-5H-pyrazolo[5,1-b][1,3]oxazine-3-carboxamide [Example 51]”, for which, in series [1] (RSV A2 in Hep-G2 cells, read-out: RSV A2 Plaque EC50), the EC50 stood at 80 nM. In [11], the CC50 is over 25000 nM. Moreover, in series [3], the “Liver Microsomal Stability t½” value is 1.1 h. For the same compound, the “Liver Microsomal Stability t½” value in [4] is over 2.33 h. Also, the “Liver Microsomal Stability t½” value in [5] turned out to be 1.04 h. Further, in [6], the “Liver Hepatocyte Stability t½” value is 1.88 h. The “Liver Hepatocyte Stability t½” value in series [7] stood at 16.4 h. Besides, the “Liver Hepatocyte Stability t½” value in [8] is 1.47 h. Also, in [9] (IV 1 mg/kg), the Cl worked out at 46.4 mL/min/kg, the “IV t½” value was determined as 0.48 h, the Vd was found to be 1.0 L/kg and the Cmax amounted to 730 ng/mL. Further, in series [9] (PO 10 mg/kg), the “PO AUClast” value came out at 1582 ng·h/mL and the “PO t½” value was found to be 1.1 h. The F in series [9] was 44.3%. For the same compound, the “C 8 h” value in series [9] (plasma at 8 h) worked out at 7.6 ng/mL.
